Reference: PubChem BioAssay AID1919008 (Molecular Pharmacology Branch, DTP, NCI, 2023)
pIC50: −log10 of the molar value.

Test system: DMS-114 complex spheroids with HUVEC/MSC, growth % test/control
Test: Anticancer human tumor DMS-114 cell line growth inhibition [AhR];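 further: spheroids exposed to agents for 7 days before readout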;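 on viability, T/C: 100% = DMSO vehicle control wells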
Details: for pIC50: curve of first compound; for viability, T/C: stronger effect = lower value
Method in brief: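 Complex tumor spheroids co-cultured with HUVEC and human MSC stroma; AhR antagonists tested in combination with standard-of-care and investigational agents. Top concentration at or near clinical Cmax (else 10 microM), half-log dilutions; growth expressed as percent test/control.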

[1] = second compound 0.1 µM, first compound 0.000949 µM
[2] = second compound 0.1 µM, first compound 0.003 µM
[3] = second compound 0.1 µM, first compound 0.00949 µM
[4] = second compound 0.1 µM, first compound 0.03 µM
[5] = second compound 0.1 µM, first compound 0.0949 µM
[6] = second compound 0.1 µM, first compound 0.3 µM
[7] = second compound 0.316 µM, first compound 0.000949 µM
[8] = second compound 0.316 µM, first compound 0.003 µM
[9] = second compound 0.316 µM, first compound 0.00949 µM
[10] = second compound 0.316 µM, first compound 0.03 µM
[11] = second compound 0.316 µM, first compound 0.0949 µM
[12] = second compound 0.316 µM, first compound 0.3 µM
[13] = second compound 1 µM, first compound 0.000949 µM
[14] = second compound 1 µM, first compound 0.003 µM
[15] = second compound 1 µM, first compound 0.00949 µM
[16] = second compound 1 µM, first compound 0.03 µM
[17] = second compound 1 µM, first compound 0.0949 µM
[18] = second compound 1 µM, first compound 0.3 µM
[19] = second compound 3.16 µM, first compound 0.000949 µM
[20] = second compound 3.16 µM, first compound 0.003 µM
[21] = second compound 3.16 µM, first compound 0.00949 µM
[22] = second compound 3.16 µM, first compound 0.03 µM
[23] = second compound 3.16 µM, first compound 0.0949 µM
[24] = second compound 3.16 µM, first compound 0.3 µM
[25] = second compound 10 µM, first compound 0.000949 µM
[26] = second compound 10 µM, first compound 0.003 µM
[27] = second compound 10 µM, first compound 0.00949 µM
[28] = second compound 10 µM, first compound 0.03 µM
[29] = second compound 10 µM, first compound 0.0949 µM
[30] = second compound 10 µM, first compound 0.3 µM

## CC(C)CC(NC(=O)C(Cc1ccccc1)NC(=O)c1cnccn1)B(O)O (stereo not given) + Cc1ccccc1N=Nc1ccc(NC(=O)c2ccnn2C)c(C)c1
Second compound 0.1 µM
  pIC50: 8.26
Second compound 0.316 µM
  pIC50: 8.22
Second compound 1 µM
  pIC50: 8.23
Second compound 3.16 µM
  pIC50: 8.21
Second compound 10 µM
  pIC50: 8.25
[1]
  viability, T/C: 90.3%
[2]
  viability, T/C: 93.9%
[3]
  viability, T/C: 12.1%
[4]
  viability, T/C: 0.2%
[5]
  viability, T/C: 0.1%
[6]
  viability, T/C: 0.22%
[7]
  viability, T/C: 101%
[8]
  viability, T/C: 99.9%
[9]
  viability, T/C: 17.2%
[10]
  viability, T/C: 0.18%
[11]
  viability, T/C: 0.05%
[12]
  viability, T/C: 0.48%
[13]
  viability, T/C: 94.7%
[14]
  viability, T/C: 94.6%
[15]
  viability, T/C: 18.1%
[16]
  viability, T/C: 0.41%
[17]
  viability, T/C: 0.28%
[18]
  viability, T/C: 0.18%
[19]
  viability, T/C: 89.9%
[20]
  viability, T/C: 97.8%
[21]
  viability, T/C: 23.4%
[22]
  viability, T/C: 0.28%
[23]
  viability, T/C: 1.08%
[24]
  viability, T/C: 0.24%
[25]
  viability, T/C: 94.3%
[26]
  viability, T/C: 88.7%
[27]
  viability, T/C: 17.1%
[28]
  viability, T/C: 0.65%
[29]
  viability, T/C: 0.6%
[30]
  viability, T/C: 0.32%

## CCc1c2c(nc3ccc(O)cc13)-c1cc3c(c(=O)n1C2)COC(=O)[C@]3(O)CC + Cc1ccccc1N=Nc1ccc(NC(=O)c2ccnn2C)c(C)c1
Second compound 0.1 µM
  pIC50: 8.04
Second compound 0.316 µM
  pIC50: 8.08
Second compound 1 µM
  pIC50: 8.00
Second compound 3.16 µM
  pIC50: 7.98
Second compound 10 µM
  pIC50: 7.87
[1]
  viability, T/C: 98.3%
[2]
  viability, T/C: 97.7%
[3]
  viability, T/C: 48%
[4]
  viability, T/C: 35.2%
[5]
  viability, T/C: 38.4%
[6]
  viability, T/C: 37.7%
[7]
  viability, T/C: 103%
[8]
  viability, T/C: 80.9%
[9]
  viability, T/C: 47%
[10]
  viability, T/C: 30.5%
[11]
  viability, T/C: 32.5%
[12]
  viability, T/C: 32.3%
[13]
  viability, T/C: 94%
[14]
  viability, T/C: 90.9%
[15]
  viability, T/C: 50.5%
[16]
  viability, T/C: 36.4%
[17]
  viability, T/C: 36.3%
[18]
  viability, T/C: 40.6%
[19]
  viability, T/C: 93.2%
[20]
  viability, T/C: 79.1%
[21]
  viability, T/C: 52.5%
[22]
  viability, T/C: 35.6%
[23]
  viability, T/C: 39.8%
[24]
  viability, T/C: 41.4%
[25]
  viability, T/C: 83.1%
[26]
  viability, T/C: 82.2%
[27]
  viability, T/C: 53.7%
[28]
  viability, T/C: 40.4%
[29]
  viability, T/C: 40.5%
[30]
  viability, T/C: 43.5%

## COc1cc(Nc2ncc3c(n2)-c2ccc(Cl)cc2C(c2c(F)cccc2OC)=NC3)ccc1C(=O)O + Cc1ccccc1N=Nc1ccc(NC(=O)c2ccnn2C)c(C)c1
Second compound 0.1 µM
  pIC50: < 5.00
Second compound 0.316 µM
  pIC50: < 5.00
Second compound 1 µM
  pIC50: < 5.00
Second compound 3.16 µM
  pIC50: < 5.00
Second compound 10 µM
  pIC50: > 7.50
Second compound 0.1 µM, first compound 0.0316 µM
  viability, T/C: 63%
Second compound 0.1 µM, first compound 0.1 µM
  viability, T/C: 57.5%
Second compound 0.1 µM, first compound 0.316 µM
  viability, T/C: 106%
Second compound 0.1 µM, first compound 1 µM
  viability, T/C: 108%
Second compound 0.1 µM, first compound 3.16 µM
  viability, T/C: 123%
Second compound 0.1 µM, first compound 10 µM
  viability, T/C: 107%
Second compound 0.316 µM, first compound 0.0316 µM
  viability, T/C: 55%
Second compound 0.316 µM, first compound 0.1 µM
  viability, T/C: 56.8%
Second compound 0.316 µM, first compound 0.316 µM
  viability, T/C: 108%
Second compound 0.316 µM, first compound 1 µM
  viability, T/C: 115%
Second compound 0.316 µM, first compound 3.16 µM
  viability, T/C: 111%
Second compound 0.316 µM, first compound 10 µM
  viability, T/C: 98.4%
Second compound 1 µM, first compound 0.0316 µM
  viability, T/C: 58.1%
Second compound 1 µM, first compound 0.1 µM
  viability, T/C: 53.3%
Second compound 1 µM, first compound 0.316 µM
  viability, T/C: 104%
Second compound 1 µM, first compound 1 µM
  viability, T/C: 107%
Second compound 1 µM, first compound 3.16 µM
  viability, T/C: 102%
Second compound 1 µM, first compound 10 µM
  viability, T/C: 106%
Second compound 3.16 µM, first compound 0.0316 µM
  viability, T/C: 52.3%
Second compound 3.16 µM, first compound 0.1 µM
  viability, T/C: 50.6%
Second compound 3.16 µM, first compound 0.316 µM
  viability, T/C: 103%
Second compound 3.16 µM, first compound 1 µM
  viability, T/C: 95.8%
Second compound 3.16 µM, first compound 3.16 µM
  viability, T/C: 106%
Second compound 3.16 µM, first compound 10 µM
  viability, T/C: 95.8%
Second compound 10 µM, first compound 0.0316 µM
  viability, T/C: 44.7%
Second compound 10 µM, first compound 0.1 µM
  viability, T/C: 42%
Second compound 10 µM, first compound 0.316 µM
  viability, T/C: 84.7%
Second compound 10 µM, first compound 1 µM
  viability, T/C: 87.1%
Second compound 10 µM, first compound 3.16 µM
  viability, T/C: 85%
Second compound 10 µM, first compound 10 µM
  viability, T/C: 76.3%
